This note sets out measurements from patent US8178530B2, “Imidazolopyrazine compounds useful for the treatment of degenerative and inflammatory diseases” (Janssen Pharmaceutica NV, priority 2006, dated 2012).

pEC50, pIC50: −log10 of the molar value. Bounds are passed on as bounds.

Assay [1] relates to MMP1 expression by SFs. Kind of assay: 'MMP assay': MMP1 expression by 'complex trigger' activated synovial fibroblasts (MMP1 ELISA). The class given is cell-based, human. The following applies: Homo sapiens, Fibroblast, RASFs, 48 hrs. How it is done: A 384-well format ELISA for measurement of MMP1 is developed. Various primary antibodies are tested, as well as various ELISA protocols. The following protocol is developed and validated to measure MMP1 levels in SF supernatant in 384 well plates: white Lumitrac 600 384 well plates (Greiner) are coated with 2 μg/mL anti-MMP1 antibody MAB1346 (Chemicon). The antibody is diluted in buffer 40 (1.21 g Tris base (Sigma), 0.58 g NaCl (Calbiochem) and 5 ml 10% NaN3 (Sigma) in 1 L milliQ water and adjusted to pH 8.5). After overnight incubation at 4° C., plates are washed with PBS (80 g NaCl, 2 g KCl (Sigma), 11.5 g Na2HPO4.7H2O and 2 g KH2PO4 in 10 L milliQ; pH 7.4) and blocked with 100 μL/well Casein buffer (2% Casein (VWR International) in PBS). Next day, casein buffer is removed from ELISA plates and replaced by 50 μL/well EC buffer (4 g casein, 2.13 g Na2HPO4 (Sigma), 2 g bovine albumin (Sigma), 0.69 g NaH2PO4.H2O (Sigma), 0.5 g CHAPS (Roche), 23.3 g NaCl, 4 mL 0.5 M EDTA pH 8 (Invitrogen), 5 mL 10% NaN3 in 1 L milliQ and adjusted to pH 7.0). 0.25 mM DTT (Sigma) is added to the thawed samples plates. After removal of the EC buffer, 20 μL of sample is transferred to the ELISA plates. After overnight incubation at 4° C. plates are washed twice with PBS and once with PBST (PBS with 0.05% Tween-20 (Sigma)) and incubated with 35 μL/well biotinylated anti-MMP1 antibody solution (R&D). This secondary antibody is diluted in buffer C (0.82 g NaH2PO4.H2O, 4.82 g Na2HPO4, 46.6 g NaCl, 20 g bovine albumin and 4 mL 0.5M EDTA pH 8 in 2 L milliQ and adjusted to pH 7.0) at a concentration of 5 μg/mL. After 2 h of incubation at RT, plates are washed as described above and incubated with 50 μL/well streptavidin-HRP conjugate (Biosource). Streptavidin-HRP conjugate is diluted in buffer C at a concentration of 0.25 μg/mL. After 45 min, plates are washed as described above and incubated for 5 min with 50 μL/well BM Chem ELISA Substrate (Roche). Readout is performed on the Luminoscan Ascent Luminometer (Labsystems) with an integration time of 200 msec or with an Envision reader (Perkin Elmer).
The increase of MMP1 expression by SFs upon treatment with cytokines relevant in the field of RA (TNF-α, IL1β and OSM) or a combination thereof is shown in FIG. 2 as white bars. For this experiment, SFs are seeded in 96 well plates, 3,000 cells/well. 24 h later, the medium is changed to M199 medium supplemented with 1% FBS. One day after the medium change, cytokines or combinations thereof are added to the cultures, each cytokine being added to a final concentration of 25 ng/mL. 72 h after cytokine addition, the supernatant is collected and processed in the MMP1 ELISA as described in the protocol given above. In parallel with this experiment, SFs are triggered, using the same protocol, with the supernatant of THP1 cells (2-fold diluted in M199+1% FBS) treated with the same cytokines or combinations of cytokines for 48 h in M199 medium+1% FBS. The induction of the MMP1 expression by SFs triggered with the supernatants of TNF-α-treated THP1 cells is stronger (>4.5 fold induction) as compared to the SFs triggered with recombinant TNF-α alone (3-fold induction) and almost equals the 5-fold induction obtained by a mixture of 3 purified cytokines (TNF-α, IL1βb, OSM). […] As the role of TNF-α in the RA pathogenesis is validated (TNF-α-blockers such as Infliximab and Etanercept show some efficacy in the treatment of RA patients) and the THP-1 cells are representative for monocytes/macrophages present in the joint of RA patients, the TNF-α-based trigger mixture prepared by contacting THP-1 cells with TNF-α will contain factors present in the joints of RA patients and subsequently is relevant to RA. This TNF-α-based complex trigger, further referred to as the ‘complex trigger’, will further be used as basis for the ‘MMP assay’.
Dexamethasone is shown to dose-dependently reduce amounts of MMP1 produced by complex trigger activated SFs. […]

The target of assay [2] is T1, MAPKAPK5 (Homo sapiens, UniProt Q8IW41).
T1 construct: 1 mU MAPKAP-K5
T1 sequence (Q8IW41 1-473): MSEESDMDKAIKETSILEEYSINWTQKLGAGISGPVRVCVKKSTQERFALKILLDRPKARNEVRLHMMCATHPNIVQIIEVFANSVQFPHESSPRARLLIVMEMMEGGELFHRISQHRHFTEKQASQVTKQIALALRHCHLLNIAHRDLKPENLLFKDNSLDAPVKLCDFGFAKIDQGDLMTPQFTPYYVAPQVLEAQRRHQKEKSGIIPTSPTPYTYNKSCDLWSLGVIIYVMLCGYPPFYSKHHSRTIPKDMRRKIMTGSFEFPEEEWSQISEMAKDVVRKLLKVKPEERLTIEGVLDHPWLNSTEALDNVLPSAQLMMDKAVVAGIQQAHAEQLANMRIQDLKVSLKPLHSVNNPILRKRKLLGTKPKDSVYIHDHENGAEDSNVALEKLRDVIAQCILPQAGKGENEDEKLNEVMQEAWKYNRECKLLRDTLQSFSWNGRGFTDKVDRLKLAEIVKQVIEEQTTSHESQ
The experiment in a line: MAPKAP-K5 assay (FlashPlate, 33P-ATP). To be noted: 0.6 μM ATP, 30 minutes at room temperature. It is filed as biochemical. How it is done:
3 μM MAPKAP-K5 peptide substrate

One may read the pEC50 as the negative decadic logarithm of the EC50, by convention in mol/L. The pIC50 is the negative decadic logarithm of the IC50, by convention in mol/L. For the molecule `O=C1NCc2oc(-c3cnc(Nc4ccc(N5CCOCC5)cc4)c4nccn34)cc21` [Compound 217, 2-[8-(4-Morpholin-4-yl-phenylamino)-imidazo[1,2-a]pyrazin5-yl]-5,6-dihydro-furo[2,3-c]pyrrol-4-one], the pEC50 in assay [1] is less than 6.00. The same molecule had a pIC50 in assay [2] of 6.30 to 7.00. In the case of `O=C1NCc2cc(-c3cnc(Nc4cncnc4)c4nccn34)ccc21` [Compound 230], the pIC50 in assay [2] is 6.30 to 7.00. As for `CC(C)Oc1ccc(Nc2ncc(-c3ccc(C(N)=O)c(F)c3)n3ccnc23)cc1` [Compound 148], the negative logarithm of the EC50 (pEC50) in assay [1] was 6.00 to 6.30. In addition, the pIC50 in assay [2] is less than 6.00. Consider `CCN(CC)CCNC(=O)c1ccc(Nc2ncc(-c3cncnc3)n3ccnc23)cc1` [Compound 87], for which the pEC50 in assay [1] is less than 6.00. Besides, in assay [2], the pIC50 is less than 6.00. Turning to `CCN(CC)CCNC(=O)c1ccc(Nc2ncc(-c3cc[nH]c(=O)c3)n3ccnc23)cc1` [Compound 99], the pEC50 in assay [1] was less than 6.00. This molecule showed a pIC50 in assay [2] of 6.30 to 7.00.

Take `CC(C)N1CCC(c2ccc(Nc3ncc(-c4cn[nH]c4)n4ccnc34)cc2)CC1` [Compound 202, [4-(1-Isopropylpiperidin-4-yl)phenyl]-[5-(1H-pyrazol-4-yl)imidazo[1,2-a]pyrazin-8-yl]amine]: the pEC50 in assay [1] was less than 6.00. Further, the pIC50 in assay [2] is 6.30 to 7.00. Take `COc1cc(Nc2ncc(-c3csc(C(N)=O)c3)n3ccnc23)ccc1C(=O)NCc1ccccc1` [Compound 191]: the pEC50 in assay [1] was less than 6.00. In assay [2], this molecule had a negative-log IC50 (pIC50) of less than 6.00.

Regarding `O=C1NCc2cc(-c3cnc(Nc4ccccc4)c4nccn34)ccc21` [Compound 213], the pEC50 in assay [1] was 6.30 to 7.00. For the same molecule, the pIC50 in assay [2] is 6.30 to 7.00. As to `CC(C)N1CCN(c2ccc(Nc3ncc(-c4cc(F)c5c(c4)CNC5=O)n4ccnc34)cc2)CC1` [Compound 220, 7-Fluoro-5-{8-[4-(4-isopropyl-piperazin-1-yl)phenylamino]imidazo[1,2-a]pyrazin-5-yl}-2,3-dihydroisoindol-1-one], the pEC50 in assay [1] was less than 6.00. This molecule also gave a pIC50 in assay [2] of 7.00 to 9.00. Consider `NS(=O)(=O)c1ccc(-c2cnc(Nc3ccc(N4CCOCC4)cc3)c3nccn23)cc1` [Compound 29], for which the pEC50 in assay [1] was less than 6.00. Moreover, the negative-log IC50 (pIC50) in assay [2] was less than 6.00. Consider `Cc1cc(Nc2ncc(-c3cn[nH]c3)n3ccnc23)ccc1C(N)=O` [Compound 33], for which, in assay [1], the pEC50 is less than 6.00. Further, in assay [2], the negative logarithm of the IC50 (pIC50) is less than 6.00. Take `Nc1ccc(Nc2ncc(-c3cn[nH]c3)n3ccnc23)cn1` [Compound 207]: the pEC50 in assay [1] was less than 6.00. Besides, the pIC50 in assay [2] is 6.00 to 6.30.

Turning to `c1cncc(Nc2ncc(-c3cn[nH]c3)n3ccnc23)c1` [Compound 42], the pEC50 in assay [1] is less than 6.00. In assay [2], this molecule had a pIC50 of less than 6.00. In the case of `CCN(CC)CCNC(=O)c1ccc(Nc2ncc(-c3n[nH]c(C)n3)n3ccnc23)cc1` [Compound 106], the negative logarithm of the EC50 (pEC50) in assay [1] is less than 6.00. Besides, the pIC50 in assay [2] was less than 6.00. Consider `N#Cc1[nH]ncc1-c1cnc(Nc2ccc(N3CCOCC3)cc2)c2nccn12` [Compound 212, 4-[8-(4-Morpholin-4-yl-phenylamino)-imidazo[1,2-a]pyrazin-5-yl]-2H-pyrazole-3-carbonitrile], for which, in assay [1], the pEC50 was 6.30 to 7.00. The molecule further showed a pIC50 in assay [2] of 6.30 to 7.00. Turning to `O=C(NCCc1c[nH]c2ccccc12)c1ccc(Nc2ncc(-c3cn[nH]c3)n3ccnc23)cc1` [Compound 94], in assay [1], the pEC50 is less than 6.00. Besides, the pIC50 in assay [2] was 6.00 to 6.30. Take `c1cn2c(-c3ccc4[nH]ccc4c3)cnc(Nc3ccc(N4CCOCC4)cc3)c2n1` [Compound 21]: the pEC50 in assay [1] was less than 6.00. For the same molecule, the pIC50 in assay [2] was less than 6.00. Regarding `O=C(NCCO)c1ccc(Nc2ncc(-c3cn[nH]c3)n3ccnc23)cc1` [Compound 61], the pEC50 in assay [1] is less than 6.00. In assay [2], the pIC50 was 6.00 to 6.30. For `c1cn2c(-c3cn[nH]c3)cnc(Nc3ccc(N4CCOCC4)cn3)c2n1` [Compound 208, N-(5-Morpholinopyridin-2-yl)-5-(1H-pyrazol-4-yl)imidazo[1,2-a]pyrazin-8-amine], in that order: less than 6.00 and less than 6.00.

As for `CCN(CCO)c1ccc(Nc2ncc(-c3ccc(N)cc3)n3ccnc23)cc1` [Compound 6], the pEC50 in assay [1] is less than 6.00. For the same molecule, the negative logarithm of the IC50 (pIC50) in assay [2] is less than 6.00.

As for `CCN(CC)CCNC(=O)c1ccc(Nc2ncc(-c3cncc4ccccc34)n3ccnc23)cc1` [Compound 77], the negative logarithm of the EC50 (pEC50) in assay [1] was less than 6.00. This molecule also had a pIC50 in assay [2] of less than 6.00. In the case of `COc1cccc(Nc2ncc(-c3ccc(C(N)=O)cc3)n3ccnc23)c1` [Compound 19], the pEC50 in assay [1] was 6.00 to 6.30. This molecule also showed a pIC50 in assay [2] of less than 6.00. Consider `CCN(CC)CCNC(=O)c1ccc(Nc2ncc(-c3ccc(C(=O)O)cc3)n3ccnc23)cc1` [Compound 47], for which the negative-log EC50 (pEC50) in assay [1] is less than 6.00. Also, the pIC50 in assay [2] is less than 6.00. `NC(=O)c1cc(-c2cnc(Nc3ccc(NC(=O)c4ccccc4)nc3)c3nccn23)cs1` [Compound 195]: the pEC50 in assay [1] was less than 6.00. Also, the negative logarithm of the IC50 (pIC50) in assay [2] was less than 6.00. As to `CCN(CC)CCNC(=O)c1ccc(Nc2ncc(-c3ccoc3)n3ccnc23)cc1` [Compound 74], the pEC50 in assay [1] was less than 6.00. In assay [2], the negative-log IC50 (pIC50) is less than 6.00. `CC(C)N1CCN(c2ccc(Nc3ncc(-c4cc5c(s4)C(=O)NC5)n4ccnc34)cc2)CC1` [Compound 228] had a negative logarithm of the IC50 (pIC50) in assay [2] of 6.30 to 7.00. In assay [2], `c1cn2c(-c3cn[nH]c3)cnc(NCc3ccc(N4CCOCC4)cc3)c2n1` [Compound 8] had a negative-log IC50 (pIC50) of less than 6.00.

For the molecule `CCc1cnc2c(Nc3ccc(N4CCOCC4)cc3)ncc(-c3cn[nH]c3)n12` [Compound 189, [3-Ethyl-5-(1H-pyrazol-4-yl)imidazo[1,2-a]pyrazin-8-yl]-(4-morpholin-4-yl-phenyl)amine], the negative logarithm of the EC50 (pEC50) in assay [1] was 6.00 to 6.30. Regarding `CN1CCN(c2ccc(Nc3ncc(-c4ccc(C(N)=O)cc4)n4ccnc34)cc2)CC1` [Compound 26], the pIC50 in assay [2] was 6.00 to 6.30. Regarding `COc1cc(Nc2ncc(-c3cn[nH]c3)n3ccnc23)ccc1C(=O)NCc1ccc(C)nc1` [Compound 184, 2-Methoxy-N-(6-methylpyridin-3-ylmethyl)-4-[5-(1H-pyrazol-4-yl)imidazo[1,2-a]pyrazin-8-ylamino]benzamide], the pEC50 in assay [1] is 6.30 to 7.00. `CCc1cnc2c(Nc3ccc(N4CCOCC4)cc3)ncc(-c3cc[nH]c(=O)c3)n12` [Compound 180]: in assay [2], the pIC50 was less than 6.00. The molecule `CCN(CCO)c1ccc(Nc2ncc(-c3ccc(O)cc3C)n3ccnc23)cc1` [Compound 3] showed a pIC50 in assay [2] of less than 6.00.
